Activity calls are given as the source filed them.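 Rule for the calls: active = AC50 no more than ten times the top concentration tested, that is within one log above it; inconclusive = flat curve fit with activity between 30% and 70%, or invalid poor fit; inactive = AC50 beyond ten times the top tested dose.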
Tested on: S. cerevisiae Mot1-301 ts growth rescue, BacTiter-Glo ATP luminescence
Test: growth rescue of Mot1-301 ts yeast, confirmation, SUMOylation pathway inhibitor project, whole organism, S. cerevisiae, Mot1-301 ts mutant, luminescence, dose retest (AID 463204);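 note: growth at restrictive 38.5 degrees C of Mot1-301 OY566 strain; actives raise luminescence by restoring growth of the ts mutant at high temperature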

O=C(NNc1ccccc1)C(CCO)C(=O)NNc1ccccc1 was tested, and the AC50 was > 42 µM (inactive).
With Cc1ccc(C)n1-n1cnc2sc3c(c2c1=O)CCCCC3 the AC50 was > 42 µM (inactive).
CCOc1ccc(NC(=O)CSc2nnc(Cc3csc(C)n3)o2)cc1 was tested, and the AC50 was > 42 µM (inactive).
O=C(CCCC(=O)N/N=C/c1ccccc1C(=O)O)N/N=C/c1ccccc1C(=O)O was tested, and the AC50 was > 42 µM (inactive).
For O=C(c1ccccc1F)N1CCCc2ccccc21, the AC50 was > 42 µM (inactive).
With O=S(=O)(NCC1CCCN(Cc2ccccc2O)C1)c1cccc2cccnc12 (configuration not stated) the AC50 was > 42 µM (inactive).
CC1CCN(C(=O)Cn2cnc3c2c(=O)n(C)c(=O)n3C)c2ccccc2S1 (configuration not stated) gave an AC50 of 7.66 µM.
For COc1cccc(CN(C)CC2CCCN(CCc3ccc(Cl)cc3)C2)c1OC (configuration not stated), the AC50 was > 42 µM (inactive).
COCCn1c(SCc2ccc(Cl)cc2)nc2c1c(=O)[nH]c(=O)n2C was tested, and the AC50 was > 42 µM (inactive).
For O=C(CCNC(=O)c1ccc(Br)cc1)NCc1ccccc1F, the AC50 was > 42 µM (inactive).
COCCN(C(=O)C1CC1)c1nnc(-c2ccc(C)cc2)s1 was tested, and the AC50 was > 42 µM (inactive).
Work on Cc1ccc2c(c1)C(=O)N1[C@H]3c4ccccc4OC[C@@H]3[C@H](c3ccccc3)[C@]1(C)C(=O)N2 yielded an AC50 of 0.86 µM.
In the case of NC(=O)CC(NC(=S)NCc1ccccc1)C(=O)O (configuration not stated), the AC50 is reported as > 42 µM (inactive).
With COc1ccc(CN(C)C(=O)c2sccc2-c2ccccc2)c(OC)c1 the AC50 was > 42 µM (inactive).
In the case of CCc1cccc(C)c1NC(=O)CSc1nnc(-c2cc3cc(Br)ccc3o2)n1CC, the AC50 is reported as > 42 µM (inactive).
With Cc1ccc(NC(=O)CCS(=O)(=O)c2ccc3nc(C)sc3c2)cc1 the AC50 was > 42 µM (inactive).
With COc1ccc(OC)c(-c2cc(C(=O)Nc3c(C)nn(Cc4ccccc4Cl)c3C)no2)c1 the AC50 was > 42 µM (inactive).
Cc1ccc(NC(=O)/C=N/OCC(=O)NCc2ccccc2Cl)cc1 was tested, and the AC50 was > 42 µM (inactive).
For CCN1C(=S)N[C@@H](CCc2ccccc2)C(C(=O)OC)=C1C, the AC50 was > 42 µM (inactive).
For O=C(CSc1nnc(CNC(=O)c2ccccc2)o1)NCc1ccco1, the AC50 was > 42 µM (inactive).
For N=c1c[n+](C2CCCCC2)[n-]o1, the AC50 was > 42 µM (inactive).
For O=C(CCCn1cnc([N+](=O)[O-])n1)Nc1cccc2ccccc12, the AC50 was > 42 µM (inactive).
For Cc1ccc(/C(N)=N/OC(=O)/C=C/c2ccccc2)cc1, the AC50 was > 42 µM (inactive).
For CC1=C/C(=N\OS(=O)(=O)c2ccccc2)C(C(C)C)=CC1=O, the AC50 was 0.86 µM.
CCC(C)c1ccc(S(=O)(=O)N2CCN(C(=O)COc3ccc4c(C)cc(=O)oc4c3)CC2)cc1 (configuration not stated) was tested, and the AC50 was > 42 µM (inactive).
In the case of Cc1ccc(N2C(=O)C3N=NN(CC(=O)N4N=C(c5cccc6ccccc56)CC4c4ccccc4)C3C2=O)cc1 (configuration not stated), the AC50 is reported as > 21 µM (inactive).
For Cc1ccc(Nc2cc(C)nc3c(C)ccc([N+](=O)[O-])c23)cc1, the AC50 was 13.8 µM.
In the case of COc1ccc(Cc2nnc(NCCO)[nH]c2=O)cc1, the AC50 is reported as > 42 µM (inactive).
COC(=O)[C@@]12CCCCN1[C@H](c1ccc(-c3ccc(C(C)=O)cc3)cc1)[C@@H]1C(=O)N(C)C(=O)[C@@H]12 was tested, and the AC50 was > 42 µM (inactive).
Compound Oc1c(Br)cc(Br)cc1/C=N/n1c(-c2ccccc2)n[nH]c1=S has an AC50 of 26.2 µM.
With COc1ccccc1CNCc1cc(OC)c(OC)c(OC)c1 the AC50 was > 42 µM (inactive).
For OC(COCc1cccs1)CN1CCCCCC1 (configuration not stated), the AC50 was > 42 µM (inactive).
O=C1CSC(c2ccc(F)c(F)c2)N1c1ccccc1F (configuration not stated) was tested, and the AC50 was > 42 µM (inactive).
With N#C/C(=C\Nc1ccc2c(c1)OCCO2)c1nc2ccccc2[nH]1 the AC50 was > 42 µM (inactive).
For CCOC(=O)c1oc2cc(OC(C)=O)ccc2c(=O)c1-c1ccc(OC)c(OC)c1, the AC50 was > 42 µM (inactive).
Clc1ccccc1-c1ccc2ncnc(NCc3cccs3)c2c1 was tested, and the AC50 was 37 µM.
For O=C(Nc1cccc(O)c1)C(Cc1ccccc1)N1C(=O)c2cccc3cccc(c23)C1=O (configuration not stated), the AC50 was > 42 µM (inactive).
COc1ccc(CN(C)S(=O)(=O)c2nnc(NC(=O)c3ccc(C)cc3)s2)cc1OC was tested, and the AC50 was > 42 µM (inactive).
CSCCc1nc(SCC(=O)Nc2nnc(C)s2)[nH]c1C was tested, and the AC50 was > 42 µM (inactive).
In the case of CN(C)S(=O)(=O)c1ccc(Cl)c(NC(=O)CN2C(=O)NC(C)(C3CC3)C2=O)c1 (configuration not stated), the AC50 is reported as > 42 µM (inactive).
O=C(/C=C/N1CCOCC1)c1coc2ccccc12 was tested, and the AC50 was > 42 µM (inactive).
With CNC(=O)NNC(=O)c1csc(-c2ccc(C(F)(F)F)cc2Cl)n1 the AC50 was > 42 µM (inactive).
CCN1CSC(=S)N(Cc2ccc(OC)cc2)C1 was tested, and the AC50 was 4.01 µM.
For O=C(Nc1ccncc1Cl)c1ccncc1, the AC50 was > 42 µM (inactive).
With CCC1(CC)NC(=O)N(CC(=O)OCC(=O)NC(=O)c2ccccc2)C1=O the AC50 was > 42 µM (inactive).
Cc1ccc(NC(=O)CSCC(=O)Nc2ccccc2N2CCCC2)cc1 was tested, and the AC50 was > 42 µM (inactive).
COCCN(C(=O)CSc1nnc(-c2ccc(C)cc2)n1N)c1c(N)n(Cc2ccccc2)c(=O)[nH]c1=O was tested, and the AC50 was > 42 µM (inactive).
With CCN1CCCC1CNC(=O)Cn1cnc2ccc(S(=O)(=O)N3CCC(C)CC3)cc2c1=O (configuration not stated) the AC50 was > 42 µM (inactive).
In the case of CC1(C)CC(=O)C2=C(C1)Oc1ncn(CCO)c(=N)c1C2c1ccccc1 (configuration not stated), the AC50 is reported as > 42 µM (inactive).
In the case of CC(=O)Nc1ccc(C(=O)NCCCOC(C)C)cc1, the AC50 is reported as > 42 µM (inactive).
With CCOC(=O)C1CCN(CC(O)COCc2ccccc2)CC1 (configuration not stated) the AC50 was > 42 µM (inactive).
For CCOc1ncccc1C(=O)OCC(=O)N(CC)c1ccccc1, the AC50 was > 42 µM (inactive).
COc1ccc(NS(=O)(=O)c2ccc(OCC(=O)N3CCOCC3)cc2)cc1Cl was tested, and the AC50 was > 42 µM (inactive).
In the case of COc1ccc(NC(=O)c2ccc(S(=O)(=O)N(C)c3ccccc3)cc2)cn1, the AC50 is reported as > 42 µM (inactive).
In the case of O=C(O)/C=C/c1cccnc1, the AC50 is reported as > 42 µM (inactive).
With COC(=O)c1c(C)n(Cc2ccc3c(c2)OCO3)c2ccc(O)cc12 the AC50 was > 42 µM (inactive).
In the case of O=C(c1ccccc1)C(CN1CCCC1)c1ccccc1 (configuration not stated), the AC50 is reported as 4.34 µM.
NC(=O)NC(=O)COC(=O)/C=C/c1cccs1 was tested, and the AC50 was > 42 µM (inactive).
CCCn1nc(C(=O)NNC(=O)c2cc(S(=O)(=O)NC)ccc2Br)c2ccccc2c1=O was tested, and the AC50 was > 42 µM (inactive).
For CN(C)S(=O)(=O)c1ccc(C(=O)/C=C/c2cccnc2)cc1, the AC50 was > 42 µM (inactive).
Cc1[nH]nc2c1C(c1cccs1)C1=C(CC(C)(C)CC1=O)N2 (configuration not stated) was tested, and the AC50 was > 42 µM (inactive).
With NC(=O)CC(NC(=O)Cc1cccc2ccccc12)c1ccc(NCCCN2CCCC2=O)c([N+](=O)[O-])c1 (configuration not stated) the AC50 was > 42 µM (inactive).
In the case of O=C(O)/C=C\C(=O)NC1CCCCC1, the AC50 is reported as > 42 µM (inactive).
For O=C(Nc1ccc2c(c1)CCCN2C(=O)c1cccs1)c1cccc(F)c1, the AC50 was > 42 µM (inactive).
Compound COc1ccc2c(c1)OC[C@H]1[C@H]2N2C(=O)c3cc(F)ccc3NC(=O)[C@@]2(C)[C@H]1c1ccccc1 has an AC50 of 3.15 µM.
COC(=O)c1sc2ccccc2c1NC(=O)c1ccc(S(=O)(=O)N2CCCC(C)C2)cc1 (configuration not stated) was tested, and the AC50 was > 42 µM (inactive).
COc1ccc(/C=N/NC(=O)c2nnn(-c3nonc3N)c2-c2cccs2)cc1OC was tested, and the AC50 was > 42 µM (inactive).
Compound O=C(COC(=O)c1ccc([N+](=O)[O-])s1)c1ccc[nH]1 has an AC50 of 21 µM.
With O=c1cc(COc2ncnc3ccccc23)nc2sccn12 the AC50 was > 42 µM (inactive).
With COc1ccc(NC(=O)CSc2nccc(C)n2)cc1 the AC50 was > 42 µM (inactive).
In the case of CC1=CC(=O)C=CC1(C)C(Cl)(Cl)Cl (configuration not stated), the AC50 is reported as > 42 µM (inactive).
In the case of CC(C)NC(=O)c1ccccc1-c1ccccc1, the AC50 is reported as > 42 µM (inactive).

Source: PubChem BioAssay AID463204 (Broad Institute, 2010)
